From patent publication US20240262826A1, “WILD TYPE KIT INHIBITORS” (Blueprint Medicines Corporation, priority 2022, published 2024)

What follows are compounds tested against wild type c-kit (Homo sapiens (Human), UniProt P10721) (assay: PathScan phospho c-kit (Tyr719) sandwich ELISA in SCF-stimulated M-07e cells (pKIT assay)). Details: ELISA assay (values not marked *).
Assay type: cell-based
From the text: The ability of compounds of the disclosure (described herein as test compounds) to inhibit autophosphorylation of wild type c-kit was measures using either a PathScan phospho c-kit (Tyr719) sandwich ELISA (CST #7298) or a Phospho c-Kit (Tyr721) Assay Whole Cell Lysate Kit (MSD: 515DPD/catalog number K15119D-2).
For the PathScan phospho c-kit (Tyr719) sandwich ELISA: M-07e cells were resuspended at 2×10^6 cells/mL in phenol red free, serum-free, GM-CSF-free Iscove's Modified Dulbecco's Medium (IMDM) media with 1% Penicillin-Streptomycin. The cells were then dispensed into the wells of a U-bottom, 96-well plate at 50 uL per well using a multichannel pipet. The plate was allowed to incubate at 37° C. in a humidified tissue culture incubator for 4 hours.
After 4 hours of incubation, each well was dosed with 6.25 uL of test compound at a final DMSO concentration of 0.25% for 60 min at 37° C. to generate an 8-point dose concentration series of test compounds in duplicate. Cells were then incubated for 1 hour at 37° C. in a humidified tissue culture incubator. Next, human SCF at 500 ng/mL was added to the appropriate wells at 6.25 uL/well and the plate was shaken at 450 rpm at room temperature for 10 minutes. AlphaLISA 5× Lysis Buffer supplemented with 1× protease and phosphatase inhibitor was then added at 16 uL/well. The plate was sealed with an adherent cover and shaken at 4° C. at 600 rpm for 30 minutes. After this period of lysis, the plate was stored at −80° C.
When the 96-well plate containing M07e lysates was ready to be processed, the plate was brought to room temperature and 40 μl from each well was transferred to the wells of a PathScan Phospho-c-Kit (Tyr719) Sandwich ELISA plate (CST, Catalog #7298). The ELISA plate was sealed with an adherent cover and incubated for 2 hours at 37° C. Next, the wells were washed 4 times with the provided 1× Wash Buffer, and 100 uL/well of reconstituted Detection Antibody was added to each well, the plate sealed with an adherent cover, and incubated at 37° C. for 1 hour. The wash procedure was repeated and 100 uL/well of reconstituted HRP-Linked secondary antibody was added. The plate was sealed with an adherent cover and incubated at 37° C. for 1 hour. The wash procedure was repeated and 100 uL/well of TMB Substrate was added. The plate was incubated for 10 minutes at room temperature or until the positive reaction elicited a blue color in the appropriate wells. 100 uL/well of STOP solution was added and shaken gently for a few seconds a microplate reader or conventional spectrophotometer e.g., a Perkin Elmer Envision multimode plate reader, part #2105-0010.
An IC50 was calculated using a 4-parameter logistic nonlinear regression.

wild type c-kit, sequence (P10721 26-976): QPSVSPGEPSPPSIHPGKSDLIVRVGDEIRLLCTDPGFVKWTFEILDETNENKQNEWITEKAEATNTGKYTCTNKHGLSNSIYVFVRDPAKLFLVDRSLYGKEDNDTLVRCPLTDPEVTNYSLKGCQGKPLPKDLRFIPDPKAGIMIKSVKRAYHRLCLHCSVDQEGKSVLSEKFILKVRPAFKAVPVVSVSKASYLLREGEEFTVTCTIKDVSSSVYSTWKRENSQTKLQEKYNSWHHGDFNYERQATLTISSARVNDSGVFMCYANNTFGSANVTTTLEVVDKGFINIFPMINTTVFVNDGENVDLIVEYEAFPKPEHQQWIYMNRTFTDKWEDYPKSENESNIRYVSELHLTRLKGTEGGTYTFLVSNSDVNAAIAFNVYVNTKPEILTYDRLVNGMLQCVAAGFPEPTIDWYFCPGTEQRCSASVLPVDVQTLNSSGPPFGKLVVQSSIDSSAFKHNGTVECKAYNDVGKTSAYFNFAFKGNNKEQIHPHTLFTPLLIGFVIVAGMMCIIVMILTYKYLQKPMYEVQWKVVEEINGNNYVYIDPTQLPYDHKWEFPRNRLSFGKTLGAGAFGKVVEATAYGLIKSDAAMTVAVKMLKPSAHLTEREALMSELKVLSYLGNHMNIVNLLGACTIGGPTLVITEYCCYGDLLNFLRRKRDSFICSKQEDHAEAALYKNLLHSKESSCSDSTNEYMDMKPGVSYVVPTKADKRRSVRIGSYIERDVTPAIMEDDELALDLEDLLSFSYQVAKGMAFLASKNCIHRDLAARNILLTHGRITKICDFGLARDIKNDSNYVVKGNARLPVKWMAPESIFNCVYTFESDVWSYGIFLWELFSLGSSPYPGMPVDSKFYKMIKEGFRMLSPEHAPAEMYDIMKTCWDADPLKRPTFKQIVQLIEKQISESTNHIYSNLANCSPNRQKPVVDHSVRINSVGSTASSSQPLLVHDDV

| IC50 | SMILES |
| --- | --- |
| 7.2 nM | COCCNc1ccn2ncc(C(=O)Nc3cc(-n4nnc(C5CN(C(=O)OC)C5)n4)ccc3C)c2c1 [Example 125, methyl 3-(2-(3-(5-((2-methoxyethyl)amino)pyrazolo[1,5-a]pyridine-3-carboxamido)-4-methylphenyl)-2H-tetrazol-5-yl)azetidine-1-carboxylate] |
| 0.4 nM | Cc1nnn(-c2ccc(C)c(NC(=O)c3cnn4ccc(-c5c(C)nn(CC(C)(C)O)c5C)cc34)c2)n1 [Example 244, 5-(1-(2-hydroxy-2-methylpropyl)-3,5-dimethyl-1H-pyrazol-4-yl)-N-(2-methyl-5-(5-methyl-2H-tetrazol-2-yl)phenyl)pyrazolo[1,5-a]pyridine-3-carboxamide] |
| 9.1 nM | Cc1ccc(-c2nnn(C3CN(CC(F)(F)F)C3)n2)cc1NC(=O)c1cnn2ccccc12 [Example 196, N-(2-methyl-5-(2-(1-(2,2,2-trifluoroethyl)azetidin-3-yl)-2H-tetrazol-5-yl)phenyl)pyrazolo[1,5-a]pyridine-3-carboxamide] |
| 4.9 nM | Cc1ccc(-c2nnn(C3CN(S(=O)(=O)C4CC4)C3)n2)cc1NC(=O)c1cnn2ccccc12 [Example 179, N-(5-(2-(1-(cyclopropylsulfonyl)azetidin-3-yl)-2H-tetrazol-5-yl)-2-methylphenyl)pyrazolo[1,5-a]pyridine-3-carboxamide] |
| 16 nM | Cn1nnc(-c2ccc(F)c(NC(=O)c3cnn4ccc(-c5cnn(CC(C)(C)O)c5)cc34)c2)n1 [Example 213, N-(2-fluoro-5-(2-methyl-2H-tetrazol-5-yl)phenyl)-5-(1-(2-hydroxy-2-methylpropyl)-1H-pyrazol-4-yl)pyrazolo[1,5-a]pyridine-3-carboxamide] |
| 0.4 nM | Cc1cc(F)c(-c2nnn(C3CC3)n2)cc1NC(=O)c1cnn2ccc(-c3c(C)nn(C[C@H](C)O)c3C)cc12 [Example 254, (S)-N-(5-(2-cyclopropyl-2H-tetrazol-5-yl)-4-fluoro-2-methylphenyl)-5-(1-(2-hydroxypropyl)-3,5-dimethyl-1H-pyrazol-4-yl)pyrazolo[1,5-a]pyridine-3-carboxamide] |
| 27 nM | COC(=O)N1CC(n2nnc(-c3cc(NC(=O)c4cnn5cc(N6CCOCC6)ccc45)c(C)cc3F)n2)C1 [Example 224, methyl 3-(5-(2-fluoro-4-methyl-5-(6-morpholinopyrazolo[1,5-a]pyridine-3-carboxamido)phenyl)-2H-tetrazol-2-yl)azetidine-1-carboxylate] |
| 0.7 nM | CCn1nnc(-c2cc(NC(=O)c3cnn4ccc(-c5c(C)nn(CC(C)(C)O)c5C)cc34)c(C)cc2F)n1 [Example 246, N-(5-(2-ethyl-2H-tetrazol-5-yl)-4-fluoro-2-methylphenyl)-5-(1-(2-hydroxy-2-methylpropyl)-3,5-dimethyl-1H-pyrazol-4-yl)pyrazolo[1,5-a]pyridine-3-carboxamide] |
| 15.6 nM | COCCNc1ccn2ncc(C(=O)Nc3cc(-c4nnn([C@H]5C[C@H](CO)C5)n4)ccc3C)c2c1 [Example 201, N-(5-(2-((1r,3r)-3-(hydroxymethyl)cyclobutyl)-2H-tetrazol-5-yl)-2-methylphenyl)-5-((2-methoxyethyl)amino)pyrazolo[1,5-a]pyridine-3-carboxamide] |
| 0.7 nM | CCn1nnc(-c2cc(NC(=O)c3cnn4ccc(-c5cn(C[C@H](O)COCCOC)nc5C)cc34)c(Cl)cc2F)n1 [Example 283, (S)—N-(2-chloro-5-(2-ethyl-2H-tetrazol-5-yl)-4-fluorophenyl)-5-(1-(2-hydroxy-3-(2-methoxyethoxy)propyl)-3-methyl-1H-pyrazol-4-yl)pyrazolo[1,5-a]pyridine-3-carboxamide] |
| 16.8 nM | CCNc1ccn2ncc(C(=O)Nc3cc(-n4ncc(C5CN(C(=O)OC)C5)n4)ccc3C)c2c1 [Example 137, methyl 3-(2-(3-(5-(ethylamino)pyrazolo[1,5-a]pyridine-3-carboxamido)-4-methylphenyl)-2H-1,2,3-triazol-4-yl)azetidine-1-carboxylate] |
| 0.4 nM | Cc1cc(F)c(-c2nnn(C3CC3)n2)cc1NC(=O)c1cnn2ccc(-c3cn(C[C@H](O)C(C)(C)O)nc3C3CC3)cc12 [Example 258, (S)-5-(3-cyclopropyl-1-(2,3-dihydroxy-3-methylbutyl)-1H-pyrazol-4-yl)-N-(5-(2-cyclopropyl-2H-tetrazol-5-yl)-4-fluoro-2-methylphenyl)pyrazolo[1,5-a]pyridine-3-carboxamide] |
| 6.3 nM | Cc1cc(Cl)c(NC(=O)c2cnn3ccc(N4CCOCC4)cc23)cc1-c1nnn(C2CC(F)(F)C2)n1 [Example 170, N-(2-chloro-5-(2-(3,3-difluorocyclobutyl)-2H-tetrazol-5-yl)-4-methylphenyl)-5-morpholinopyrazolo[1,5-a]pyridine-3-carboxamide] |

Continued, compound first:

| SMILES | IC50 |
| --- | --- |
| COC(=O)N1CC(n2nnc(-c3ccc(C)c(NC(=O)c4cnn5ccc(N6CCO[C@H](CO)C6)cc45)c3)n2)C1 [Example 68, methyl (S)-3-(5-(3-(5-(2-(hydroxymethyl)morpholino)pyrazolo[1,5-a]pyridine-3-carboxamido)-4-methylphenyl)-2H-tetrazol-2-yl)azetidine-1-carboxylate] | 61.3 nM |
| O=C(Nc1cc(-c2nnn(C3CC(F)(F)C3)n2)c(F)cc1Cl)c1cnn2ccc(N3CCOCC3)cc12 [Example 63, N-(2-chloro-5-(2-(3,3-difluorocyclobutyl)-2H-tetrazol-5-yl)-4-fluorophenyl)-5-morpholinopyrazolo[1,5-a]pyridine-3-carboxamide] | 10.5 nM |
| COCCNc1ccn2ncc(C(=O)Nc3cc(-c4nnn(C5CC5)n4)ccc3C)c2c1 [Example 88, N-(5-(2-cyclopropyl-2H-tetrazol-5-yl)-2-methylphenyl)-5-((2-methoxyethyl)amino)pyrazolo[1,5-a]pyridine-3-carboxamide] | 3.2 nM |
| COCCNc1ccn2ncc(C(=O)Nc3cc(-c4nnn(C5CN(C(=O)OC)C5)n4)ccc3C)c2c1C [Example 45, methyl 3-(5-(3-(5-((2-methoxyethyl)amino)-4-methylpyrazolo[1,5-a]pyridine-3-carboxamido)-4-methylphenyl)-2H-tetrazol-2-yl)azetidine-1-carboxylate] | 70.2 nM |
| CCn1nnc(-c2ccc(C)c(NC(=O)c3cnn4ccccc34)c2)n1 [Example 14, N-(5-(2-ethyl-2H-tetrazol-5-yl)-2-methylphenyl)pyrazolo[1,5-a]pyridine-3-carboxamide] | 28.6 nM |
| Nc1ccn2ncc(C(=O)Nc3cc(-c4nnn(CC5CC5(F)F)n4)ccc3Cl)c2c1 (stereo not drawn) [Example 27, 5-amino-N-(2-chloro-5-(2-((2,2-difluorocyclopropyl)methyl)-2H-tetrazol-5-yl)phenyl)pyrazolo[1,5-a]pyridine-3-carboxamide] | 19.3 nM |
| Cc1ccc(-c2nnn(C3CC(F)(F)C3)n2)cc1NC(=O)c1cnn2ccc(N3CC(CO)C3)cc12 [Example 103, N-(5-(2-(3,3-difluorocyclobutyl)-2H-tetrazol-5-yl)-2-methylphenyl)-5-(3-(hydroxymethyl)azetidin-1-yl)pyrazolo[1,5-a]pyridine-3-carboxamide] | 2.4 nM |
| Cc1ccc(-c2nnn(CC3CC4(CC4)CO3)n2)cc1NC(=O)c1cnn2ccccc12 (stereo not drawn) [Example 10, N-(5-(2-((5-oxaspiro[2.4]heptan-6-yl)methyl)-2H-tetrazol-5-yl)-2-methylphenyl)pyrazolo[1,5-a]pyridine-3-carboxamide] | 3.8 nM |
| COC(=O)N1CC(n2nnc(-c3ccc(C)c(NC(=O)c4cnn5ccc(N6CCC[C@@H](O)C6)cc45)c3)n2)C1 [Example 71, methyl (R)-3-(5-(3-(5-(3-hydroxypiperidin-1-yl)pyrazolo[1,5-a]pyridine-3-carboxamido)-4-methylphenyl)-2H-tetrazol-2-yl)azetidine-1-carboxylate] | 41.6 nM |
| COC(=O)N1CC(n2nnc(-c3ccc(C)c(NC(=O)c4cnn5ccc(N6CCN7CCC[C@@H]7C6)cc45)c3)n2)C1 [Example 75, methyl (R)-3-(5-(3-(5-(hexahydropyrrolo[1,2-a]pyrazin-2(1H)-yl)pyrazolo[1,5-a]pyridine-3-carboxamido)-4-methylphenyl)-2H-tetrazol-2-yl)azetidine-1-carboxylate] | 9.6 nM |
| COCCNc1ccn2ncc(C(=O)Nc3cc(-c4nnn(CCCC(F)(F)F)n4)ccc3C)c2c1 [Example 116, 5-((2-methoxyethyl)amino)-N-(2-methyl-5-(2-(4,4,4-trifluorobutyl)-2H-tetrazol-5-yl)phenyl)pyrazolo[1,5-a]pyridine-3-carboxamide] | 3.2 nM |
